Key:
[1] = target: 72 kDa type IV collagenase (Homo sapiens, UniProt P08253)
Description: In vitro inhibitory activity against gelatinase-A (matrix metalloprotease-2).

[2] = target: Collagenase 3 (Homo sapiens, UniProt P45452)
Description: In vitro inhibitory activity against collagenase-3 (matrix metalloprotease-13).

[3] = target: T1, Interstitial collagenase (Homo sapiens, UniProt P03956)
T1 sequence (P03956 whole entry): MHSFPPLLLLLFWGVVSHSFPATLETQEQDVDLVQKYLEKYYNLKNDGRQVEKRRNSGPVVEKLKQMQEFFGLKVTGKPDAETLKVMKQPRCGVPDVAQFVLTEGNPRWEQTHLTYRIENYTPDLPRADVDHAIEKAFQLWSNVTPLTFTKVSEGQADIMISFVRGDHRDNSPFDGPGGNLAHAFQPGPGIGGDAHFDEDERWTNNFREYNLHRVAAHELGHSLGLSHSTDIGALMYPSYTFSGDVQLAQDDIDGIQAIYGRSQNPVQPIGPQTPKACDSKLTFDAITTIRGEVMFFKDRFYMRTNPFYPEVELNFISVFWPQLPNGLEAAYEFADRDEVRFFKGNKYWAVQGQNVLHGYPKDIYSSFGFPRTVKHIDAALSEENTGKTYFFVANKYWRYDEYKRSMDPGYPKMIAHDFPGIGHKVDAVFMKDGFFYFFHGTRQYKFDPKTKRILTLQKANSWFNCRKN
Description: In vitro inhibitory activity against truncated collagenase-1 (matrix metalloprotease-1).

[4] = target: T2, Matrilysin (Homo sapiens, UniProt P09237)
T2 sequence (P09237 whole entry): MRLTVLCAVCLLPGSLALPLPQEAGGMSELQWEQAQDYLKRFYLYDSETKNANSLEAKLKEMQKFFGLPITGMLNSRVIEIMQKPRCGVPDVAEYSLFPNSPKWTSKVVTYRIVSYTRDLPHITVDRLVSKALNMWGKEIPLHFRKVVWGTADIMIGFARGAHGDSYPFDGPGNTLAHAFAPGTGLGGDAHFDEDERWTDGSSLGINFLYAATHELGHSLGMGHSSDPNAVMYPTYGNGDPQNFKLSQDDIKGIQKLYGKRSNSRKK
Description: In vitro inhibitory activity against matrilysin (matrix metalloprotease-7).

[5] = target: Neutrophil collagenase (Homo sapiens, UniProt P22894)
Sequence of Neutrophil collagenase (P22894 whole entry): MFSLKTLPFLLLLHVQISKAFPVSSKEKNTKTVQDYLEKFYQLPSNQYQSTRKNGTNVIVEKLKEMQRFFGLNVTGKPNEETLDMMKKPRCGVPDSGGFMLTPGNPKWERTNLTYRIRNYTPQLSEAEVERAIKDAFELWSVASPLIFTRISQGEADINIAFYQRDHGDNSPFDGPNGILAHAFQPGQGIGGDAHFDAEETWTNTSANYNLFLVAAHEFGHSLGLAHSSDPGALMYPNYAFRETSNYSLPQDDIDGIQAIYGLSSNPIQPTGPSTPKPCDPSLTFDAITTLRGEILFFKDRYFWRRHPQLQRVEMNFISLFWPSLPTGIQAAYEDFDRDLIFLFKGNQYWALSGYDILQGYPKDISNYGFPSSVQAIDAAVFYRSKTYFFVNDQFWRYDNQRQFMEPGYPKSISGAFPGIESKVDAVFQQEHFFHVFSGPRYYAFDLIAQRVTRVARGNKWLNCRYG
Description: Inhibition of neutrophil collagenase (Matrix metalloprotease-8)

[6] = target: Matrix metalloproteinase-9 (Homo sapiens, UniProt P14780)
Sequence of Matrix metalloproteinase-9 (P14780 whole entry): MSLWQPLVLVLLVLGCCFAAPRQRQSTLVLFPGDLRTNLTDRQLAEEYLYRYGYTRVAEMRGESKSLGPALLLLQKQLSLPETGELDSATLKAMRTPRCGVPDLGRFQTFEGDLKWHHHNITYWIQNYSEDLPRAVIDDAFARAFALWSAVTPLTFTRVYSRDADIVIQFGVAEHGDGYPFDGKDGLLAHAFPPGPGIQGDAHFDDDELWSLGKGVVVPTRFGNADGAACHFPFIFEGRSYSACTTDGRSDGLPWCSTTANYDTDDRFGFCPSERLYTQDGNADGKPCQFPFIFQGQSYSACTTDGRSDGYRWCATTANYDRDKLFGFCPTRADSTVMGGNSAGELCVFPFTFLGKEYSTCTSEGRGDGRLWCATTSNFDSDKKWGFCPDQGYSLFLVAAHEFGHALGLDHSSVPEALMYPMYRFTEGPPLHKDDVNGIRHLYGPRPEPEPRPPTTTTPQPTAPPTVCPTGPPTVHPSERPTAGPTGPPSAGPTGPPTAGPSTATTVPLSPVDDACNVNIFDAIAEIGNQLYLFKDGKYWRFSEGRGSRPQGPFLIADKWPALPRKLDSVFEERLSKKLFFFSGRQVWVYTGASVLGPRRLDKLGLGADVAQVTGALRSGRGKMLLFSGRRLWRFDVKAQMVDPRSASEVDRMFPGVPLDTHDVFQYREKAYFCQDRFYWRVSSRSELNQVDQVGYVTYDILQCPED
Description: Inhibition of gelatinase-B (Matrix metalloprotease-9)

[7] = target: T2, Matrilysin; remark: listed apart in the source
Description: Inhibition of matrilysin (Matrix metalloprotease-7)

Sequence of 72 kDa type IV collagenase (P08253 whole entry): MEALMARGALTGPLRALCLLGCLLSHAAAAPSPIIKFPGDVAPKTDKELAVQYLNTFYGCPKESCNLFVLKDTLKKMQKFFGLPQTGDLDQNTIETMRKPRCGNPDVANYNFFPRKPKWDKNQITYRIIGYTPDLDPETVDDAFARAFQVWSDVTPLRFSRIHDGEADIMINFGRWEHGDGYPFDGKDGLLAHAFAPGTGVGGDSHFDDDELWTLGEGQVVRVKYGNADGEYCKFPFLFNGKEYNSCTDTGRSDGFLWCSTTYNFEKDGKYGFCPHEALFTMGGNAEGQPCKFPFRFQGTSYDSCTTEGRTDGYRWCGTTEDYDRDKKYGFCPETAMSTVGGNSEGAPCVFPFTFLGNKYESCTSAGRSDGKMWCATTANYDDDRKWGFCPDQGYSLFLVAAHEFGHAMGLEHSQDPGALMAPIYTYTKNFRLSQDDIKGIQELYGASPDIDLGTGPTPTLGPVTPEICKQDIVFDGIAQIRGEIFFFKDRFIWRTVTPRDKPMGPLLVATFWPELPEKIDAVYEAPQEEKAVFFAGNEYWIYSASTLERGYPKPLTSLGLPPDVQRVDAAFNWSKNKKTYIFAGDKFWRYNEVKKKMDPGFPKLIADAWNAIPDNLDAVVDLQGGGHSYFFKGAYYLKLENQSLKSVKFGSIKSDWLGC

Structure (SMILES)	IC50 [1] [nM]	IC50 [2] [nM]	IC50 [3] [nM]	IC50 [4] [nM]	IC50 [5] [nM]	IC50 [6] [nM]	Ki [7] [nM]
COCCOc1ccc(S(=O)(=O)N2CCCSC(C)(C)[C@@H]2C(=O)NO)cc1	11.4	5.6	42	509	–	–	–
CC1(C)SCCCN(S(=O)(=O)c2ccc(Oc3ccncc3)cc2)[C@H]1C(=O)NO	< 0.4	< 0.4	5.7	105	–	–	–
COc1ccc(S(=O)(=O)N2CSCC2C(=O)NO)cc1 (stereo unspecified)	–	–	638	–	–	–	–
CCCc1ccc(S(=O)(=O)N2CCCSC(C)(C)[C@@H]2C(=O)NO)cc1	35	7.5	22	637	–	–	–
CC1(C)SCCCN(S(=O)(=O)c2ccc(-c3ccc(F)cc3)cc2)[C@H]1C(=O)NO	1.3	< 1	2.9	< 100	–	–	–
COc1ccc(S(=O)(=O)N2CCOCCSC(C)(C)[C@@H]2C(=O)NO)cc1	3.5	0.2	< 1	< 100	–	–	–
CC1(C)SCCCN(S(=O)(=O)c2ccc(-c3ccccn3)s2)[C@H]1C(=O)NO	1	< 0.2	1	170	–	–	–
CC1(C)SCCCN(S(=O)(=O)c2ccc(Br)cc2)[C@H]1C(=O)NO	6.8	1.3	0.7	17	–	–	–
COc1ccc(S(=O)(=O)N2CCCCC(C)(C)[C@@H]2C(=O)NO)cc1	1.4	–	2.4	18	1.9	0.5	–
CCCCOc1ccc(S(=O)(=O)N2CCCSC(C)(C)[C@@H]2C(=O)NO)cc1	1	2.3	18	–	–	–	–
CCCCOc1ccc(S(=O)(=O)N2CCCS(=O)(=O)C(C)(C)[C@@H]2C(=O)NO)cc1	1.2	0.4	19	27	–	–	–
COc1ccc(S(=O)(=O)N2CCS(=O)(=O)C(C)(C)[C@@H]2C(=O)NO)cc1	14	4.3	13	–	–	–	–
COCOC1CSC(C)(C)[C@H](C(=O)NO)N(S(=O)(=O)c2ccc(OC)cc2)C1 (stereo partly specified)	1.8	1.4	–	38	–	–	–
COc1ccc(S(=O)(=O)N2CCCCCC2C(=O)NO)cc1 (stereo unspecified)	–	1.8	49	895	–	–	–
COc1ccc(S(=O)(=O)N2CCCSC(C)(C)[C@@H]2C(=O)NO)cc1	2.7	0.9	0.8	30	1.4	1.9	–
COc1ccc(S(=O)(=O)N2CCCSCC2C(=O)NO)cc1 (stereo unspecified)	–	1.9	64	1100	–	–	–
COc1ccc(S(=O)(=O)N2[C@@H](C(=O)NO)C(C)(C)SCC[C@H]2c2ccccc2)cc1	–	–	236	54	–	–	–
COc1ccc(S(=O)(=O)N2CCCCC2C(=O)NO)cc1 (stereo unspecified)	–	0.5	–	313	–	–	–

Structure (SMILES)	IC50 [1] [nM]	IC50 [2] [nM]	IC50 [3] [nM]	IC50 [4] [nM]	IC50 [5] [nM]	IC50 [6] [nM]	Ki [7] [nM]
COc1ccc(S(=O)(=O)N2[C@@H](c3ccccc3)CCSC(C)(C)[C@@H]2C(=O)NO)cc1	–	–	271	110	–	–	–
COc1ccc(S(=O)(=O)N2CCCSC[C@@]2(C)C(=O)NO)cc1	4.2	4	217	17700	–	–	–
CC1(C)[C@H](C(=O)NO)N(S(=O)(=O)c2ccc(Br)cc2)CCCS1(=O)=O	20	2.7	1.2	79	–	–	–
CCCCCc1ccc(S(=O)(=O)N2CCCSC(C)(C)[C@@H]2C(=O)NO)cc1	–	2.1	61	330	–	–	–
COc1ccc(S(=O)(=O)N2CCSCC2C(=O)NO)cc1 (stereo unspecified)	–	1	62	2070	–	–	–
COc1ccc(S(=O)(=O)N2C[C@@H](O)CS(=O)(=O)C(C)(C)[C@@H]2C(=O)NO)cc1	5.2	1.3	1.9	–	–	–	–
CC1(C)SCCCN(S(=O)(=O)c2ccc(Oc3ccccc3)cc2)[C@H]1C(=O)NO	–	< 0.4	2.3	16	–	–	–
COc1ccc(S(=O)(=O)N2CCCSC(C)(C)C2C(=O)NO)cc1 (single isomer, unassigned)	2900	2330	7780	> 10000	881	1390	–
COc1ccc(S(=O)(=O)N2CCOCC2C(=O)NO)cc1 (stereo unspecified)	–	1	49.5	–	–	–	–
Cc1cc(Br)ccc1S(=O)(=O)N1CCCSC(C)(C)[C@@H]1C(=O)NO	24	9.2	0.5	354	–	–	–
COc1ccc(S(=O)(=O)N2CCNCC2C(=O)NO)cc1 (stereo unspecified)	–	1.7	175	2390	–	–	–
COc1ccc(S(=O)(=O)N2CCCS(=O)(=O)C(C)(C)[C@@H]2C(=O)NO)cc1	7.8	2.1	–	41	2.4	3.6	–
COc1ccc(S(=O)(=O)N2CCCC2C(=O)NO)cc1 (stereo unspecified)	–	–	297	–	–	–	–
COc1ccc(S(=O)(=O)N2CCOCCS(=O)(=O)C(C)(C)[C@@H]2C(=O)NO)cc1	–	3.3	1.9	183	–	–	–
COc1ccc(S(=O)(=O)N2CCS(=O)(=O)CC2C(=O)NO)cc1 (stereo unspecified)	–	18.4	688	12800	–	–	–
CC1(C)SCCN(S(=O)(=O)c2ccc(Oc3ccncc3)cc2)[C@H]1C(=O)NO [PRINOMASTAT]	–	–	–	91	< 0.4	–	54
COc1ccc(S(=O)(=O)N2CCCCCSC(C)(C)[C@@H]2C(=O)NO)cc1	2.4	1	3	30	0.6	3.7	–
COc1ccc(S(=O)(=O)N2CCSC(C)(C)[C@@H]2C(=O)NO)cc1	1.4	1	0.4	23	–	0.9	–

From ChEMBL document CHEMBL1132690, “Design, synthesis, and biological evaluation of potent thiazine- and thiazepine-based matrix metalloproteinase inhibitors” (J Med Chem, 1999)
